Data set [1] relates to Candida albicans. The data set can be described thus: Antifungal activity against Candida albicans SC5314 incubated for 48 hrs by CLSI based liquid microdilution technique. Format: functional.
Data set [2] deals with Nakaseomyces glabratus. Description: Antifungal activity against Candida glabrata 7804 incubated for 48 hrs by CLSI based liquid microdilution technique. In kind it is functional.
Data set [3] concerns Cryptococcus neoformans. The data set can be described thus: Antifungal activity against Cryptococcus neoformans H99 incubated for 72 hrs by CLSI based liquid microdilution technique. In kind it is functional.
Data set [4] has as its system Pichia kudriavzevii. The data set can be described thus: Antifungal activity against Candida krusei 10153 incubated for 48 hrs by CLSI based liquid microdilution technique. Format: functional.
The nature of data set [5]: Cytotoxicity against HUVEC cells measured after 72 hrs by CCK8 assay. In kind it is toxicity, cell-based. To be noted: human.
Data set [6] can be described thus: Cytotoxicity against human L02 cells measured after 72 hrs by CCK8 assay. In kind it is toxicity, cell-based.
Data set [7] deals with T1, Lanosterol 14-alpha demethylase (Candida albicans (strain SC5314 / ATCC MYA-2876) (Yeast), UniProt P10613). Description: Inhibition of CYP51 in Candida albicans SC5314 assessed as accumulation of eburicol at 4 ug/ml measured after 48 hrs by GC-MS analysis. To be noted: at 4 µg/mL.
T1 sequence (P10613 whole entry): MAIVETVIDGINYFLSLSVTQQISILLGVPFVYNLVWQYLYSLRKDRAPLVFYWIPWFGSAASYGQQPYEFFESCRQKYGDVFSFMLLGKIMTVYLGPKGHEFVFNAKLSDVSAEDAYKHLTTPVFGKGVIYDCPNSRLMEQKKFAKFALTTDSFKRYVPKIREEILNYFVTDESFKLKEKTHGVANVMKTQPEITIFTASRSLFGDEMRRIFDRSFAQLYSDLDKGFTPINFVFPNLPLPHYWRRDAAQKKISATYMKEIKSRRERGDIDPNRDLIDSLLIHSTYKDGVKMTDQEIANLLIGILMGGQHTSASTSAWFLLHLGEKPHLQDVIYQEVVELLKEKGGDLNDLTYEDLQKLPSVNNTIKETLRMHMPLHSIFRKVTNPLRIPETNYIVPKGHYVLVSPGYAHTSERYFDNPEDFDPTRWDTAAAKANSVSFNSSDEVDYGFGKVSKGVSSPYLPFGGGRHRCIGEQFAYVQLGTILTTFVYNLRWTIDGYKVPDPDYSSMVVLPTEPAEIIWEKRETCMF
Data set [8] deals with T1, Lanosterol 14-alpha demethylase. Description: Inhibition of CYP51 in Candida albicans SC5314 assessed as decrease in ERG26 mRNA level at 4 ug/ml measured after 24 hrs by real time RT-PCR analysis. To be noted: at 4 µg/mL.
Data set [9] has the same target. The data set can be described thus: Inhibition of CYP51 in Candida albicans SC5314 assessed as decrease in ERG27 mRNA level at 4 ug/ml measured after 24 hrs by real time RT-PCR analysis. The following applies: at 4 µg/mL.
For data set [10] the target is unchanged. Description: Inhibition of CYP51 in Candida albicans SC5314 assessed as decrease in ERG6 mRNA level at 4 ug/ml measured after 24 hrs by real time RT-PCR analysis. To be noted: at 4 µg/mL.
For data set [11] the target is unchanged. The data set can be described thus: Inhibition of CYP51 in Candida albicans SC5314 assessed as decrease in ERG3 mRNA level at 4 ug/ml measured after 24 hrs by real time RT-PCR analysis. The following applies: at 4 µg/mL.
Data set [12] addresses Heat shock protein 90 homolog (Candida albicans (strain SC5314 / ATCC MYA-2876) (Yeast), UniProt P46598). The data set can be described thus: Inhibition of HSP90 extracted from Candida albicans SC5314 lysate using FITC-Geldanamycin as substrate incubated for 6 hrs by fluorescence polarization assay. Format: subcellular.
Data set [13] concerns Candida albicans. Description: Selectivity index, ratio of MIC80 antifungal activity against Candida albicans SC5314 to MIC80 for antifungal activity against Candida albicans SC5314 harboring HSP90 monoallelic knockout. In kind it is functional.
In data set [14] the target is Heat shock protein HSP90 (Homo sapiens, UniProt P07900+P08238). The data set can be described thus: Inhibition of human HSP90 using FITC-Geldanamycin as substrate incubated for 6 hrs by fluorescence polarization assay. Format: protein assay.
The test system of data set [15] is Candida albicans. Description: Antifungal activity against Candida albicans SC5314 harboring HSP90 monoallelic knockout incubated for 48 hrs by CLSI based liquid microdilution technique. Format: functional.
Data set [16] deals with Candida albicans. Description: Antifungal activity against Candida albicans SC5314 assessed as fungal growth inhibition at 4 ug/ml incubated for 48 hrs. In kind it is functional, organism-based. To be noted: dose 4.0 µg/ml.
The test system of data set [17] is Candida albicans. Description: Antifungal activity against Candida albicans SC5314 assessed as reduction in fungal growth at 8 ug/ml incubated for 48 hrs (reference value: 8.17 log10CFU/ml). In kind it is functional. The following applies: dose 8 µg/ml.
The test system of data set [18] is Candida albicans. Description: Antifungal activity against Candida albicans SC5314 assessed as fungal growth inhibition incubated for 48 hrs by spot-plating method. Format: functional, organism-based. To be noted: dose 4-32 µg/ml.
Data set [19] has as its system Candida albicans. Description: Antifungal activity against Candida albicans SC5314 assessed as fungal growth inhibition at 4 ug/ml incubated for 48 hrs by spot-plating method. In kind it is functional, organism-based. To be noted: dose 4.0 µg/ml.
Data set [20] deals with Candida albicans. Description: Antifungal activity against Candida albicans SC5314 assessed as fungal growth inhibition at 32 ug/ml incubated for 48 hrs by spot-plating method relative to control. Format: functional.
Data set [21] deals with Candida albicans. The data set can be described thus: Inhibition of yeast to hypha transition in Candida albicans SC5314 at 4 ug/ml incubated for 2.5 hrs by inverted microscopy. Format: functional, organism-based. The following applies: dose 4.0 µg/ml.
The test system of data set [22] is Candida albicans. Description: Inhibition of yeast to hypha transition in Candida albicans SC5314 at 8 ug/ml incubated for 2.5 hrs by inverted microscopy relative to control. In kind it is functional.
Data set [23] deals with Candida albicans. Description: Inhibition of biofilm formation in Candida albicans SC5314 at 0.5 ug/ml incubated for 24 hrs by XTT reduction method relative to control. In kind it is functional.
Data set [24] has as its system Candida albicans. Description: Inhibition of biofilm formation in Candida albicans SC5314 at 4 ug/ml incubated for 24 hrs by XTT reduction method relative to control. In kind it is functional.
Data set [25] concerns Candida albicans. The data set can be described thus: Inhibition of biofilm formation in Candida albicans SC5314 at 32 ug/ml incubated for 24 hrs by XTT reduction method relative to control. In kind it is functional.
Data set [26] deals with Candida albicans. The data set can be described thus: Inhibition of biofilm formation in Candida albicans SC5314 incubated for 24 hrs by XTT reduction method. In kind it is functional, organism-based. The following applies: dose <= 32.0 µg/ml.
Data set [27] concerns Candida albicans. Description: Antifungal activity against Candida albicans SC5314 assessed as decrease in BCR1 mRNA level at 4 ug/ml measured after 24 hrs by real time RT-PCR analysis. In kind it is functional, organism-based. The following applies: dose 4.0 µg/ml.
Data set [28] relates to Candida albicans. The data set can be described thus: Antifungal activity against Candida albicans SC5314 assessed as decrease in EAP1 mRNA level at 4 ug/ml measured after 24 hrs by real time RT-PCR analysis. In kind it is functional, organism-based. To be noted: dose 4.0 µg/ml.
For data set [29], the system named is Candida albicans. The data set can be described thus: Antifungal activity against Candida albicans SC5314 assessed as decrease in HWP1 mRNA level at 4 ug/ml measured after 24 hrs by real time RT-PCR analysis. In kind it is functional, organism-based. The following applies: dose 4.0 µg/ml.
Data set [30] concerns Candida albicans. Description: Antifungal activity against Candida albicans SC5314 assessed as decrease in ALS3 mRNA level at 4 ug/ml measured after 24 hrs by real time RT-PCR analysis. In kind it is functional, organism-based. To be noted: dose 4.0 µg/ml.
Data set [31] deals with Candida albicans. The data set can be described thus: Antifungal activity against Candida albicans SC5314 assessed as decrease in EFG1 mRNA level at 4 ug/ml measured after 24 hrs by real time RT-PCR analysis. In kind it is functional, organism-based. The following applies: dose 4.0 µg/ml.
For data set [32], the system named is Candida albicans. Description: Antifungal activity against Candida albicans SC5314 assessed as decrease in CPH1 mRNA level at 4 ug/ml measured after 24 hrs by real time RT-PCR analysis. In kind it is functional, organism-based. To be noted: dose 4.0 µg/ml.
In data set [33] the test system is Candida albicans. The data set can be described thus: Antifungal activity against Candida albicans SC5314 assessed as decrease in ACE2 mRNA level at 4 ug/ml measured after 24 hrs by real time RT-PCR analysis. The following applies: dose 4.0 µg/ml. Format: functional, organism-based.
The subject of data set [34] is Candida albicans. Description: Antifungal activity against Candida albicans SC5314 assessed as decrease in TEC1 mRNA level at 4 ug/ml measured after 24 hrs by real time RT-PCR analysis. Format: functional, organism-based. The following applies: dose 4.0 µg/ml.
Data set [35] deals with Candida albicans. Description: Antifungal activity against Candida albicans SC5314 assessed as decrease in RLM1 mRNA level at 4 ug/ml measured after 24 hrs by real time RT-PCR analysis. The following applies: dose 4.0 µg/ml. Format: functional, organism-based.
In data set [36] the test system is Candida albicans. Description: Antifungal activity against Candida albicans SC5314 assessed as decrease in ZAP1 mRNA level at 4 ug/ml measured after 24 hrs by real time RT-PCR analysis. Format: functional, organism-based. To be noted: dose 4.0 µg/ml.
The test system of data set [37] is Candida albicans. The data set can be described thus: Antifungal activity against Candida albicans SC5314 infected in immunosuppressed ICR mouse assessed as reduction in fungal burden in kidney at 5 mg/kg, ip treated for 5 days consecutively (reference value: 6.71 log10CFU/ml). In kind it is functional. The following applies: time 5 day.
Data set [38] concerns Candida albicans. Description: Antifungal activity against Candida albicans SC5314 infected in immunosuppressed ICR mouse assessed as reduction in fungal burden in kidney at 10 mg/kg, ip treated for 5 days consecutively (reference value: 6.71 log10CFU/ml). In kind it is functional. To be noted: time 5 day.
The subject of data set [39] is Candida albicans. The data set can be described thus: Antifungal activity against Candida albicans SC5314 infected in immunosuppressed ICR mouse assessed as reduction in fungal burden in kidney at 20 mg/kg, ip treated for 5 days consecutively (reference value: 6.71 log10CFU/ml). In kind it is functional. To be noted: time 5 day.
Data set [40] has as its system Candida albicans. Description: Antifungal activity against Candida albicans SC5314 infected in immunosuppressed ICR mouse administered intraperitoneally treated for 5 days consecutively. Format: functional, organism-based. To be noted: dose 5-20 mg/kg, route ip, time 5.0 day.

Each structure is given as a SMILES string. ≈ marks a conversion by molar mass, not a printed value. Calls of active or inactive are those of the source. The rule behind the calls is not given here.

Heat shock protein 90 homolog, sequence (P46598 whole entry): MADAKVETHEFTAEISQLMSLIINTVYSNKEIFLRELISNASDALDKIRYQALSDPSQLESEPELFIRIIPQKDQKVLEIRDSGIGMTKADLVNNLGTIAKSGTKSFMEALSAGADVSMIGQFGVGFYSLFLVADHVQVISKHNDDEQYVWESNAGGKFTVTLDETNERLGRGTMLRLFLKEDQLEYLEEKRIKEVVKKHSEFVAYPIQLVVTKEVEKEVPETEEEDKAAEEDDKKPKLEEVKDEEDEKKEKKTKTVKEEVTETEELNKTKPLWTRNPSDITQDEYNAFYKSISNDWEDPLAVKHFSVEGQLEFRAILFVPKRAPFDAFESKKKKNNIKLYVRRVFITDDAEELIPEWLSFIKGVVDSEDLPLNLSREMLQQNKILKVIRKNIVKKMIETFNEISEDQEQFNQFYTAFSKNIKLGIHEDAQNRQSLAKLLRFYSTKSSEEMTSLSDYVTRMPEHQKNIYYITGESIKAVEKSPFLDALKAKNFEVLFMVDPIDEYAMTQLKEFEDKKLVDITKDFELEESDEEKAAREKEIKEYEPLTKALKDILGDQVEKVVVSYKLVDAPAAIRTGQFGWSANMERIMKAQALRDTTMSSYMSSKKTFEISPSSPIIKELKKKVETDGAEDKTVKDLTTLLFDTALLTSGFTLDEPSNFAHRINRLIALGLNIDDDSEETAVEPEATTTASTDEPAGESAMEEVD

On to `CCN(C(=O)c1cc(-c2ccc(C)cc2)c(O)cc1O)c1ccc(CN2CCN(CC(O)(Cn3cncn3)c3ccc(F)cc3F)CC2)cc1` (stereo not drawn), for which the MIC80 was found to be 0.063 µg/mL (≈ 0.0923 µM) in [1]; 8 µg/mL (≈ 11.7 µM) in data set [2]; 4 µg/mL (≈ 5.86 µM) in data set [3]; 16 µg/mL (≈ 23.4 µM) in [4]; 0.004 µg/mL (≈ 0.00586 µM) in data set [15]. The IC50 at 72 h in [5] and in data set [6] was 2100 nM throughout. In addition, the “inhibition (INH)” value in data set [7], in data set [8], in data set [9], in data set [10] and in data set [11] was “Active” in each case. Also, the IC50 in data set [12] amounted to 740 nM; in data set [14] it was 6630 nM. For the same compound, the Ratio in [13] was 16. Besides, the inhibition result in data set [16] was “Active; Activity Was Superior Than Flc”; in data set [18], “Dose-dependent-effect”; in [19], “Active; Activity Was Superior Than Flc”; in [21] it was “Active; Inhibitory Effect Was Superior Than Flc”; in data set [26] it was “Dose-dependent-effect; Result Indicated That Compound Was More Potent Than Flc”. Further, the Activity was 7.39 log10CFU/ml in data set [17]; 6.14 log10CFU/ml in data set [37]; 5.83 log10CFU/ml in [38]; 5.47 log10CFU/ml in data set [39]; “Dose-dependent-effect” in [40]. The inhibition at 32 µg/mL is ~100% in data set [20] and 100% in [25]. The same compound displayed an inhibition at 8 µg/mL in [22] of 100%. Besides, the inhibition at 0.5 µg/mL in [23] is > 50%. Further, the inhibition at 4 µg/mL in [24] was > 80%. In addition, the result in [27], in data set [28], in data set [29], in data set [30], in data set [31] and in [32] was Active. For the same compound, the result in data set [33], in data set [34], in data set [35] and in [36] was Active.

`OC(Cn1cncn1)(Cn1cncn1)c1ccc(F)cc1F` [FLUCONAZOLE]: the MIC80 was found to be 0.5 µg/mL (≈ 1.63 µM) in data set [1], 16 µg/mL (≈ 52.2 µM) in data set [2], 1 µg/mL (≈ 3.27 µM) in data set [3] and 64 µg/mL (≈ 209 µM) in data set [4]. Also, the “inhibition (INH)” value in data set [7] is given as “Active”.

Take `CCNC(=O)c1noc(-c2cc(-c3ccc(C)cc3)c(O)cc2O)c1-c1ccc(CN2CCN(C(=O)CCCCCOc3ccc(CN(C)CC(O)(Cn4cncn4)c4ccc(F)cc4F)cc3)CC2)cc1` (stereo not drawn): the MIC80 was 4 µg/mL (≈ 4.07 µM) in [1], 16 µg/mL (≈ 16.3 µM) in [2], 4 µg/mL (≈ 4.07 µM) in [3] and > 64 µg/mL in [4].

As for `CCNC(=O)c1noc(-c2cc(-c3ccc(C)cc3)c(O)cc2O)c1-c1ccc(CN2CCN(C(=O)CCCOc3ccc(CN(C)CC(O)(Cn4cncn4)c4ccc(F)cc4F)cc3)CC2)cc1` (stereo not drawn), the MIC80 in [1] is 8 µg/mL (≈ 8.38 µM); in [2], 16 µg/mL (≈ 16.8 µM); in data set [3], 4 µg/mL (≈ 4.19 µM); in data set [4], > 64 µg/mL.

For the origin of these results see ChEMBL document CHEMBL6096686, “Lanosterol 14α-Demethylase (CYP51)/Heat Shock Protein 90 (Hsp90) Dual Inhibitors for the Treatment of Invasive Candidiasis” (J Med Chem, 2025).
